Target: T1, TAFIa (Homo sapiens, UniProt Q96IY4)
T1 sequence (Q96IY4 115-423): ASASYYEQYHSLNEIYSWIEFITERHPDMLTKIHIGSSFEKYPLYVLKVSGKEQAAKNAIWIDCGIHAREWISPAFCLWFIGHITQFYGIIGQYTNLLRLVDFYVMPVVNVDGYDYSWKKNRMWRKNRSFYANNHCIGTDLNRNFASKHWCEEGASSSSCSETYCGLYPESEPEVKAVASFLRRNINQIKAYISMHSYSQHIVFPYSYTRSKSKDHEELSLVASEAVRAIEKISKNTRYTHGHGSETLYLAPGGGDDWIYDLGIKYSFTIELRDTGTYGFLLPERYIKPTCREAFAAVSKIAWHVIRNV
Assay: Inhibition of TAFIa (hippuryl-Arg test)
Format: biochemical
Conditions: TAFIa 2 nM, hippuryl-arginine 5 mM, 45 minutes, relative to control containing the carrier; for inhibition at 0.01 µM: compound at 10 nM; for inhibition at 0.02 µM: compound at 20 nM
Procedure: Human TAFI (4 nM) is incubated with human thrombin (10 nM) and human thrombomodulin (5 nM) in the presence of calcium (10 mM). After incubation for 20 minutes, the activation reaction is stopped by addition of PPACK (1 μM final), an irreversible thrombin inhibitor.
The reactions take place in Hepes buffer (25 mM Hepes, 137 mM NaCl, 3.5 mM KCl)+0.1% bovine albumin, pH 7.4 at 28° C. and with stirring.
The test compound is added to the solution of TAFIa (2 nM) and incubated for 45 minutes in the presence of hippuryl-arginine (5 mM). The reaction is stopped by addition of hydrochloric acid (1M) neutralised subsequently with sodium hydroxide (1M), and then the mixture is buffered with disodium hydroxyphosphate (1M pH 7.4). […] The reaction mixture is stirred (vortex) and then centrifuged. The supernatant is transferred to a 96-well microplate, and the absorbance is measured using a spectrophotometer at 405 nm (Spectramax plus, Molecular Devices).
The OD value of a well containing the reagents without TAFI is subtracted from all the OD values measured. The percentage inhibition of TAFIa at a given concentration of the test compound is determined by means of the following formula: % inhibition=100−[(OD compound×100)/OD carrier]
The compounds are evaluated at 10 nM and 20 nM under the experimental conditions described above and the results are expressed as the percentage inhibition relative to a control containing the carrier in the absence of compound.

Structure (SMILES) | inhibition at 0.01 µM [%] | inhibition at 0.02 µM [%]
Cc1ccc(-c2cc(Cl)ccc2CN2CCP(=O)(O)[C@](CCCCN)(C(=O)O)C2)cc1 [Example 218, (3S)-3-(4-AMINOBUTYL)-1-[[4-CHLORO-2-(4-METHYLPHENYL)PHENYL]METHYL]-4-HYDROXY-4-OXO-1,4-AZAPHOSPHINANE-3-CARBOXYLIC ACID] | 67 | 83
Cc1ncc(-c2cc(F)ccc2CN2CCP(=O)(O)[C@](CCCCN)(C(=O)O)C2)n1C [Example 219, (3S)-3-(4-AMINOBUTYL)-1-[2-(1,2-DIMETHYL-1H-IMIDAZOL-5-YL)-4-FLUOROBENZYL]-4-HYDROXY-4-OXO-1,4-AZAPHOSPHINANE-3-CARBOXYLIC ACID] | 92 | 98
NCCCC[C@@]1(C(=O)O)CN(Cc2ccc(F)cc2-c2cnc3ccccn23)CCP1(=O)O [Example 220, (3S)-3-(4-AMINOBUTYL)-1-[(4-FLUORO-2-IMIDAZO[1,2-A]PYRIDIN-3-YLPHENYL)METHYL]-4-HYDROXY-4-OXO-1,4-AZAPHOSPHINANE-3-CARBOXYLIC ACID] | 83 | 97
COc1cc(-c2cc(F)ccc2CN2CCP(=O)(O)[C@](CCCCN)(C(=O)O)C2)ccn1 [Example 221, (3S)-3-(4-AMINOBUTYL)-1-[[4-FLUORO-2-(2-METHOXYPYRIDIN-4-YL)PHENYL]-METHYL]-4-HYDROXY-4-OXO-1,4-AZAPHOSPHINANE-3-CARBOXYLIC ACID] | 75 | 88
NCCCC[C@@]1(C(=O)O)CN(Cc2ccc(F)cc2-c2cc[nH]c(=O)c2)CCP1(=O)O [Example 222, (3S)-3-(4-AMINOBUTYL)-1-[[4-FLUORO-2-(2-OXO-1H-PYRIDIN-4-YL)PHENYL]-METHYL]-4-HYDROXY-4-OXO-1,4-AZAPHOSPHINANE-3-CARBOXYLIC ACID] | 73 | 85
Cc1ccc(-c2cc(O)ccc2CN2CCP(=O)(O)[C@](CCCCN)(C(=O)O)C2)cc1 [Example 223, (3S)-3-(4-AMINOBUTYL)-4-HYDROXY-1-[[4-HYDROXY-2-(4-METHYLPHENYL)-PHENYL]METHYL]-4-OXO-1,4-AZAPHOSPHINANE-3-CARBOXYLIC ACID] | 71 | 83
NCCCC[C@@]1(C(=O)O)CN(Cc2ccc(O)cc2-c2cnc3ccccn23)CCP1(=O)O [Example 224, (3S)-3-(4-AMINOBUTYL)-4-HYDROXY-1-[4-HYDROXY-2-(IMIDAZO[1,2-A]-PYRIDIN-3-YL)BENZYL]-4-OXO-1,4-AZAPHOSPHINANE-3-CARBOXYLIC ACID] | 86 | 93
NCCCC[C@@]1(C(=O)O)CN(Cc2ccc(O)cc2-c2ccncc2)CCP1(=O)O [Example 225, (3S)-3-(4-AMINOBUTYL)-4-HYDROXY-1-[(4-HYDROXY-2-PYRIDIN-4-YLPHENYL)METHYL]-4-OXO-1,4-AZAPHOSPHINANE-3-CARBOXYLIC ACID] | 76 | 85
NCCCC[C@@]1(C(=O)O)CN(Cc2ccc(F)cc2-c2cccc(F)c2)CCP1(=O)O [Example 226, (3S)-3-(4-AMINOBUTYL)-1-[[4-FLUORO-2-(3-FLUOROPHENYL)PHENYL]METHYL]-4-HYDROXY-4-OXO-1,4-AZAPHOSPHINANE-3-CARBOXYLIC ACID] | 71 | 88
NCCCC[C@@]1(C(=O)O)CN(Cc2ccc(O)cc2-c2cccs2)CCP1(=O)O [Example 227, (3S)-3-(4-AMINOBUTYL)-4-HYDROXY-1-[(4-HYDROXY-2-THIOPHEN-2-YLPHENYL)METHYL]-4-OXO-1,4-AZAPHOSPHINANE-3-CARBOXYLIC ACID] | 84 | 91
NCCCC[C@@]1(C(=O)O)CN(Cc2ccc(O)cc2-c2ccc(F)cc2)CCP1(=O)O [Example 228, (3S)-3-(4-AMINOBUTYL)-1-[[2-(4-FLUOROPHENYL)-4-HYDROXYPHENYL]-METHYL]-4-HYDROXY-4-OXO-1,4-AZAPHOSPHINANE-3-CARBOXYLIC ACID] | 63 | 82
COc1ccc(-c2cc(O)ccc2CN2CCP(=O)(O)[C@](CCCCN)(C(=O)O)C2)cc1OC [Example 229, (3S)-3-(4-AMINOBUTYL)-1-[[2-(3,4-DIMETHOXYPHENYL)-4-HYDROXYPHENYL]-METHYL]-4-HYDROXY-4-OXO-1,4-AZAPHOSPHINANE-3-CARBOXYLIC ACID] | 81 | 89
Cn1nc(C(F)(F)F)cc1-c1ccccc1CN1CCP(=O)(O)[C@](CCCCN)(C(=O)O)C1 [Example 232, (3S)-3-(4-AMINOBUTYL)-4-HYDROXY-1-[[2-[2-METHYL-5-(TRIFLUOROMETHYL)-PYRAZOL-3-YL]PHENYL]METHYL]-4-OXO-1,4-AZAPHOSPHINANE-3-CARBOXYLIC ACID] | 80 | 89
NCCCC[C@@]1(C(=O)O)CN(Cc2ccc(F)cc2-c2cncnc2)CCP1(=O)O [Example 234, (3S)-3-(4-AMINOBUTYL)-1-[(4-FLUORO-2-PYRIMIDIN-5-YLPHENYL)METHYL]-4-HYDROXY-4-OXO-1,4-AZAPHOSPHINANE-3-CARBOXYLIC ACID] | 68 | 79
Cn1nccc1-c1ccccc1CN1CCP(=O)(O)[C@](CCCCN)(C(=O)O)C1 [Example 235, (3S)-3-(4-AMINOBUTYL)-4-HYDROXY-1-[[2-(2-METHYLPYRAZOL-3-YL)PHENYL]METHYL]-4-OXO-1,4-AZAPHOSPHINANE-3-CARBOXYLIC ACID] | 60 | 77
Cn1nccc1-c1cc(F)ccc1CN1CCP(=O)(O)[C@](CCCCN)(C(=O)O)C1 [Example 236, (3S)-3-(4-AMINOBUTYL)-1-[[4-FLUORO-2-(2-METHYLPYRAZOL-3-YL)PHENYL]-METHYL]-4-HYDROXY-4-OXO-1,4-AZAPHOSPHINANE-3-CARBOXYLIC ACID] | 81 | 91
NCCCC[C@@]1(C(=O)O)CN(Cc2ccccc2-c2cnc3ccccn23)CCP1(=O)O [Example 237, (3S)-3-(4-AMINOBUTYL)-4-HYDROXY-1-[(2-IMIDAZO[1,2-A]PYRIDIN-3-YLPHENYL)METHYL]-4-OXO-1,4-AZAPHOSPHINANE-3-CARBOXYLIC ACID] | 77 | 84
NCCCC[C@@]1(C(=O)O)CN(Cc2ccc(F)cc2-c2cccc(O)c2)CCP1(=O)O [Example 238, (3S)-3-(4-AMINOBUTYL)-1-[[4-FLUORO-2-(3-HYDROXYPHENYL)PHENYL]-METHYL]-4-HYDROXY-4-OXO-1,4-AZAPHOSPHINANE-3-CARBOXYLIC ACID] | 70 | 87
COc1ccc(-c2cc(F)ccc2CN2CCP(=O)(O)[C@](CCCCN)(C(=O)O)C2)cn1 [Example 239, (3S)-3-(4-AMINOBUTYL)-1-[[4-FLUORO-2-(6-METHOXYPYRIDIN-3-YL)PHENYL]-METHYL]-4-HYDROXY-4-OXO-1,4-AZAPHOSPHINANE-3-CARBOXYLIC ACID] | 85 | 96
NCCCC[C@@]1(C(=O)O)CN(Cc2ccccc2-c2ccc(O)nc2)CCP1(=O)O [Example 240, (3S)-3-(4-AMINOBUTYL)-4-HYDROXY-1-[[2-(6-HYDROXYPYRIDIN-3-YL)PHENYL]METHYL]-4-OXO-1,4-AZAPHOSPHINANE-3-CARBOXYLIC ACID] | 66 | 80
NCCCC[C@@]1(C(=O)O)CN(Cc2ccc(F)cc2-c2ccc(O)nc2)CCP1(=O)O [Example 241, (3S)-3-(4-AMINOBUTYL)-1-[[4-FLUORO-2-(6-HYDROXYPYRIDIN-3-YL)PHENYL]-METHYL]-4-HYDROXY-4-OXO-1,4-AZAPHOSPHINANE-3-CARBOXYLIC ACID] | 77 | 91
COc1ccc(-c2cc(O)ccc2CN2CCP(=O)(O)[C@](CCCCN)(C(=O)O)C2)cn1 [Example 242, (3S)-3-(4-AMINOBUTYL)-4-HYDROXY-1-[[4-HYDROXY-2-(6-METHOXYPYRIDIN-3-YL)PHENYL]METHYL]-4-OXO-1,4-AZAPHOSPHINANE-3-CARBOXYLIC ACID] | 75 | 88
COc1cccc(-c2cc(F)ccc2CN2CCP(=O)(O)[C@](CCCCN)(C(=O)O)C2)n1 [Example 244, (3S)-3-(4-AMINOBUTYL)-1-[[4-FLUORO-2-(6-METHOXYPYRIDIN-2-YL)PHENYL]-METHYL]-4-HYDROXY-4-OXO-1,4-AZAPHOSPHINANE-3-CARBOXYLIC ACID] | 49 | 68
NCCCC[C@@]1(C(=O)O)CN(Cc2ccc(F)cc2-c2nccs2)CCP1(=O)O [Example 245, (3S)-3-(4-AMINOBUTYL)-1-[[4-FLUORO-2-(1,3-THIAZOL-2-YL)PHENYL]METHYL]-4-HYDROXY-4-OXO-1,4-AZAPHOSPHINANE-3-CARBOXYLIC ACID] | 38 | 52

Source: patent publication US10138260B2, “Compounds of phosphinanes and azaphosphinanes, a process for their preparation and pharmaceutical compositions containing them” (LES LABORATOIRES SERVIER, priority 2016, dated 2018)
